Source: patent US9834754B2, “Populations of hematopoietic progenitors and methods of enriching stem cells therefor” (University Health Network, priority 2011, dated 2017)

What was measured:
[1] = tested on: CD34+CD43− cells isolated from Activin A induced or SB-treated EBs; experiment: T lymphoid precursor frequency analysis (limiting dilution assay on OP9-DL4 cells); type: cell-based, human; conditions: limiting dilution analyses, day 9 CD34+ population
Method: (§1) The hESC line H1 (Thomson et al., 1998) and the reprogrammed human iPS cell line (MSC-iPS1; (Park et al., 2008)) were used in this study. They were maintained on irradiated mouse embryonic fibroblasts in hESC media as described previously (Kennedy et al., 2007). Prior to differentiation, the cells were feeder-depleted by culturing on matrigel (BD Biosciences, Bedford, Mass.) in hESC media for 24 to 48 hours. To generate EBs, hPSCs were treated with collagenase B (1 mg/ml; Roche, Indianapolis, Ind.) for 20 minutes followed by a short trypsin-EDTA (0.05%) step. Cells were gently scraped with a cell scraper to form small aggregates (10-20 cells). Aggregates were resuspended in StemPro-34 (Invitrogen), supplemented with penicillin/streptomycin (10 ng/mL), L-glutamine (2 mM), ascorbic acid (1 mM), monothioglycerol (MTG, 4×10^−4M; Sigma), and transferrin (150 μg/mL). […]
Limiting dilution assays (LDA) of CD34+CD43− cells isolated from either Activin A induced or SB-treated EBs were performed by serial dilutions. […] The presence of CD45+CD7+CD43+CD5+ cells was scored. Progenitor frequencies were determined by the method of maximum likelihood applied to the Poisson model (Groth, 1982).

[2] = tested on: H1 hESCs differentiated as embryoid bodies (EBs); experiment: Hematopoietic colony assay of hESC-derived EBs; type: cell-based, human; conditions: for erythroid progenitors in day 13 EBs: treatment between days 2 and 4 of differentiation, Activin A at increasing concentrations
Method: The hESC line H1 (Thomson et al., 1998) and the reprogrammed human iPS cell line (MSC-iPS1; (Park et al., 2008)) were used in this study. They were maintained on irradiated mouse embryonic fibroblasts in hESC media as described previously (Kennedy et al., 2007). Prior to differentiation, the cells were feeder-depleted by culturing on matrigel (BD Biosciences, Bedford, Mass.) in hESC media for 24 to 48 hours. To generate EBs, hPSCs were treated with collagenase B (1 mg/ml; Roche, Indianapolis, Ind.) for 20 minutes followed by a short trypsin-EDTA (0.05%) step. Cells were gently scraped with a cell scraper to form small aggregates (10-20 cells). Aggregates were resuspended in StemPro-34 (Invitrogen), supplemented with penicillin/streptomycin (10 ng/mL), L-glutamine (2 mM), ascorbic acid (1 mM), monothioglycerol (MTG, 4×10^−4M; Sigma), and transferrin (150 μg/mL). BMP-4 (10 ng/mL), bFGF (5 ng/mL), Activin A, 6 μM SB-431542, VEGF (15 ng/mL), Dkk (150 ng/mL), IL-6 (10 ng/mL), IGF-1 (25 ng/mL), IL-11 (5 ng/mL), SCF (50 ng/mL), EPO (2 U/mL final), TPO (30 ng/mL), IL-3 (30 ng/mL) and Flt-3L (10 ng/mL) were added as indicated. Cultures were maintained in a 5% CO2/5% O2/90% N2 environment for the first 8 days and then transferred to a 5% CO2/air environment. All recombinant factors are human and were purchased from R&D Systems (Minneapolis, Minn.).
Analysis of hematopoietic colony potential was performed by plating either 5×103-2.5×10^4 sorted cells or 2.5×104-5.0×104 unfractionated EB populations in 1% methylcellulose containing specific cytokines as described in detail previously (Kennedy et al., 2007). Colonies consisting of erythroid, erythroid/myeloid and myeloid (either macrophage or mast cell) cells were quantified after 10-14 days.

[3] = tested on: H1 hESCs differentiated as embryoid bodies (EBs); experiment: Flow cytometric analysis of surface markers on hESC-derived EBs; type: cell-based, human
Method: The hESC line H1 (Thomson et al., 1998) and the reprogrammed human iPS cell line (MSC-iPS1; (Park et al., 2008)) were used in this study. They were maintained on irradiated mouse embryonic fibroblasts in hESC media as described previously (Kennedy et al., 2007). Prior to differentiation, the cells were feeder-depleted by culturing on matrigel (BD Biosciences, Bedford, Mass.) in hESC media for 24 to 48 hours. To generate EBs, hPSCs were treated with collagenase B (1 mg/ml; Roche, Indianapolis, Ind.) for 20 minutes followed by a short trypsin-EDTA (0.05%) step. Cells were gently scraped with a cell scraper to form small aggregates (10-20 cells). Aggregates were resuspended in StemPro-34 (Invitrogen), supplemented with penicillin/streptomycin (10 ng/mL), L-glutamine (2 mM), ascorbic acid (1 mM), monothioglycerol (MTG, 4×10^-4M; Sigma), and transferrin (150 μg/mL). BMP-4 (10 ng/mL), bFGF (5 ng/mL), Activin A, 6 μM SB-431542, VEGF (15 ng/mL), Dkk (150 ng/mL), IL-6 (10 ng/mL), IGF-1 (25 ng/mL), IL-11 (5 ng/mL), SCF (50 ng/mL), EPO (2 U/mL final), TPO (30 ng/mL), IL-3 (30 ng/mL) and Flt-3L (10 ng/mL) were added as indicated. Cultures were maintained in a 5% CO2/5% O2/90% N2 environment for the first 8 days and then transferred to a 5% CO2/air environment. All recombinant factors are human and were purchased from R&D Systems (Minneapolis, Minn.). The following antibodies were used for these studies: CD3-APC (clone UCHT1), CD4-APC-EFluor750 (clone RPA-T4), CD5-PE-Cy7 (clone L17F12), CD7-FITC (clone M-[…]), CD8-eFluor-650 NC (clone RPA-T8), CD31-FITC (clone WM59), CD33-FITC (clone HIM 3-4), CD34-APC (clone 8G12), CD34-PE-CY7 (clone 4H11), CD41-APC (clone HIP8), […]10), CD45-APC-eFluor750 (clone 2D1) or CD45-PacificBlue (clone H130), CD56-PE-Cy7 (clone B159), CD90-APC (clone 5E10), CD117-APC (clone 104D2), CD144-PE (clone 123413), KDR-PE (clone 89106), TCRγδ-FITC (clone 11F2), TCRαβ-PE (clone T10B9.1A-31). Stained cells were analyzed using an LSRII (BD Biosciences) flow cytometer at the indicated time points. Data analysis was performed using FlowJo software. For T lymphoid studies, analyses were carried out by gating on live cells and lack of 6-Diamidino-2-phenylindole (DAPI) uptake, followed by gating on cells expressing CD45. All antibodies were purchased from BD Biosciences (San Diego, Calif.) with the following exceptions: CD8 eFluor-650 NC and CD34-PE-CY7 were purchased from eBioscience (San Diego, Calif.) and KDR was purchased from R&D systems. Cells were sorted with […] (BD) cell sorter at the Sick Kids/UHN Flow Cytometry Facility.

[4] = tested on: phospho-SMAD2 (Activin/nodal signaling); experiment: Western blot / densitometry of phospho-Smad2 in day 2 EBs; type: cell-based, human; conditions: 30 minutes treatment, FIG. 4B
From the text: Thirty minutes after the addition of DMSO, Activin A, and/or SB at day 2 of differentiation, wells were harvested and lysed on ice using RIPA buffer. Proteins were separated by SDS-PAGE, transferred onto nitrocellulose membranes and probed overnight with Smad2 (Cell Signaling, 1:1000) and phospho-Smad2 antibodies (Millipore, 1:1000, […]/467). Membranes were scanned using the LI-COR Biosciences Odyssey imaging system.

[5] = tested on: CD34+ population isolated from EBs; experiment: RT-qPCR expression analysis of CD34+ fractions from day 9 EBs; type: cell-based, human; conditions: FIG. 4E
Method: Total RNA was prepared with the RNAqueous RNA Isolation Kit (Ambion) and treated with RNase-free DNase (Qiagen). 100 ng to 1 ug RNA was transcribed into cDNA using random hexamers and Oligo (dT) with Superscript III Reverse Transcriptase (Invitrogen). Real-time quantitative PCR was performed on a MasterCycler EP RealPlex (Eppendorf). All experiments were carried out in triplicate using SYBR Green JumpStart Taq ReadyMix (Sigma). The oligonucleotide sequences are available upon request. Gene expression was evaluated as DeltaCt relative to control (ACTB).

[6] = tested on: day 9 CD34+ progenitors; experiment: OP9-DL4 co-culture for T-lineage differentiation; type: cell-based, human; conditions: cultured on OP9-DL4 cells; FIG. 5A
Method: OP9 cells retrovirally-transduced to express Delta-like 4 (OP9-DL4) were generated and maintained in α-MEM medium supplemented with penicillin/streptomycin and 20% FBS (OP9 media) as previously described (La Motte-Mohs et al., 2005; Schmitt et al., 2004). 5-10×10^4 sorted human EB-derived subsets were added to individual wells of a 6-well plate containing OP9-DL4 cells, and cultured in OP9-media supplemented with rhFlt-3L (5 ng/mL) and rhIL-7 (5 ng/mL), (Peprotech, Rocky Hill, N.J.). rhSCF (100 ng/mL) was added for the first 8 days only, Every five days co-cultures were transferred onto fresh OP9-DL4 cells by vigorous pipetting and passaging through a 40 μm cell strainer to remove stromal cells.

[7] = tested on: CD34+CD43− populations; experiment: OP9-DL1 co-culture for erythroid/myeloid differentiation followed by colony assay; type: cell-based, human; conditions: 7 days of co-culture on OP9-DL1; FIG. 6C
Method: Sorted cells were cultured at a concentration of 2×10^4 cells per well on irradiated OP9-DL1 monolayers in OP9 media with VEGF (5 ng/mL), TPO (30 ng/mL), SCF (50 ng/mL), Flt3 (10 ng/mL), IL-11 (5 ng/mL), and BMP-4 (10 ng/mL) in 24-well plates for 7 days. Cells were harvested as above. Analysis of hematopoietic colony potential was performed by plating either 5×103-2.5×10^4 sorted cells or 2.5×104-5.0×104 unfractionated EB populations in 1% methylcellulose containing specific cytokines as described in detail previously (Kennedy et al., 2007). Colonies consisting of erythroid, erythroid/myeloid and myeloid (either macrophage or mast cell) cells were quantified after 10-14 days.

[8] = tested on: iPSC line MSC-iPS1; experiment: Hematopoietic differentiation of hiPSCs (flow cytometry and colony assay); type: cell-based, human; conditions: SB added between days 2 to 4; hiPSC; FIG. 7
Method: as §1, with “cells).” for “cells). Aggregates were resuspended in StemPro-34 (Invitrogen), supplemented with penicillin/streptomycin (10 ng/mL), L-glutamine (2 mM), ascorbic acid (1 mM), monothioglycerol (MTG, 4×10^−4M; Sigma), and transferrin (150 μg/mL).”
The following antibodies were used for these studies: CD3-APC (clone UCHT1), CD4-APC-EFluor750 (clone RPA-T4), CD5-PE-Cy7 (clone L17F12), CD7-FITC (clone M-T701), CD8-eFluor-650 NC (clone RPA-T8), CD31-FITC (clone WM59), CD33-FITC (clone HIM 3-4), CD34-APC (clone 8G12), CD34-PE-CY7 (clone 4H11), CD41-APC (clone HIP8), CD42b-PE (clone HIP1), CD43-PE (clone 1G10), CD45-APC-eFluor750 (clone 2D1) or CD45-PacificBlue (clone H130), CD56-PE-Cy7 (clone B159), CD90-APC (clone 5E10), CD117-APC (clone 104D2), CD144-PE (clone 123413), KDR-PE (clone 89106), TCRγδ-FITC (clone 11F2), TCRαβ-PE (clone T10B9.1A-31). Stained cells were analyzed using an LSRII (BD Biosciences) flow cytometer at the indicated time points. […]

[9] = tested on: other pathways or kinases including BMP4, ERK, JNK or p38 MAPK; conditions: Inman, 2002; cited from earlier work
[10] = inhibition between days 2 and 4, FIG. 4C

In the case of `NC(=O)c1ccc(-c2nc(-c3ccc4c(c3)OCO4)c(-c3ccccn3)[nH]2)cc1` [SB-431542], the “frequency of T cell progenitors in SB-treated CD34+ population relative to Activin A-induced CD34+CD43− population” value [1] is reported as “more than 3 fold”, the “erythroid progenitors in SB-treated EBs” value ([2]; any of the timepoints assayed, FIG. 4D) is reported as “not detected” and the “erythroid progenitors in day 13 EBs” value ([2]; FIG. 1C) is reported as “eliminated almost all erythroid progenitors”. The “CD43+ population at day 9 when SB addition delayed until day 3” value ([3]; SB added at day 3 of differentiation, FIG. 9) was “development of some CD43^+ cells”, the “development of KDR+ and CD34+ populations” value ([3]; SB added between days 2 and 4 of differentiation) was “developed normally” and the “induction of KDR+CD34+ hematopoietic mesoderm population at day 5 of differentiation” value ([3]; SB added within the first 24 hours of differentiation, FIG. 4A) was “completely blocked”. The “development of the CD43+ population in day 9 EBs” value [3, 10] was “completely blocked”, the “effect on CD34+ cells in day 9 EBs” value [3, 10] was “did not appear to impact” and the “development of KDR+ cells (mesoderm formation)” value ([3]; inhibitor added between days 1 and 2 of differentiation) was “prevented the development of any KDR^+ cells”. The “levels of phospho-SMAD2 (densitometry)” value [4] was “significantly reduced”, the “expression of LMO2, GATA1, GATA2 and HOXB4 versus Activin A-induced population” value [5] was “comparable” and the “expression of SOX17 and AML1C in CD34+ population versus Activin A-induced CD34+CD43− population” value [5] was “higher levels”. For the same molecule, the “T cell generation from SB-treated day 9 CD34+ progenitors” value [6] was “generated T cells”, the “numbers of erythroid and erythroid-myeloid progenitors versus Activin A-induced progenitors” value [7] was “significantly higher numbers” and the “development of CD41+/CD43+ populations and erythroid and erythroid-myeloid progenitors” value [8] was “inhibited”. The “inhibition of other pathways or kinases including BMP4, ERK, JNK or p38 MAPK” value [9] was “no observed inhibition”.

B1: Activin A: recombinant human factor purchased from R&D Systems, used for hematopoietic induction (protein, UniProt P08476 311-426, looked up)
Inhibin beta A chain: GLECDGKVNICCKKQFFVSFKDIGWNDWIIAPSGYHANYCEGECPSHIAGTSGSSLSFHSTVINHYRMRGHSPFANLKSCCVPTKLRPMSMLYYDDGQNIIKKDIQNMIVEECGCS
With B1 the “induction of myeloid and erythroid progenitors” value ([2]; 0.3 ng/mL Activin A) was “effectively induced both myeloid and erythroid progenitors”, the “myeloid progenitors in day 13 EBs” value ([2]; increasing concentrations of Activin A, days 2-4, FIG. 1C) was “reduction in myeloid progenitors” and the “erythroid progenitors in day 13 EBs” value ([2]; FIG. 1C) was “increase in erythroid progenitors”.
